pIC50: −log10 of the molar value. Values joined by “and” are separate entries in the source; they are usually repeats but may differ in a detail not shown here. Equal values may be shown once.
Experiments:
[1] = target: T1, endogenous P2X4 channels (Homo sapiens, UniProt Q99571); assay: Human Monocyte P2X4 Assay (FLIPR); type: cell-based; details: primary human monocytes, 3 μM BzATP, one value per donor
T1 construct: measure calcium influx through endogenous P2X4 channels into primary human monocytes
T1 sequence (Q99571 1-388): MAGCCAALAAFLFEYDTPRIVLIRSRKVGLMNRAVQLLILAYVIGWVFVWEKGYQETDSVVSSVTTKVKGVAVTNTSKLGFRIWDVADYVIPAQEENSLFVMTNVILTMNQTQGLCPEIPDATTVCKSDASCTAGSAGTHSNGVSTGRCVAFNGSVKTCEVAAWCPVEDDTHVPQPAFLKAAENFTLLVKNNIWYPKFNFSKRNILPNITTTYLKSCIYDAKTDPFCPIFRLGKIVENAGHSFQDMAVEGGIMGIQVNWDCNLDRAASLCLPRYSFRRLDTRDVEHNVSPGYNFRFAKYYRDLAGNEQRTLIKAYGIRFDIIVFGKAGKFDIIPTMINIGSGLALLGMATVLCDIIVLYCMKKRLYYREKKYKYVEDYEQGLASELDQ
Protocol: The principle of the assay is to measure calcium influx through endogenous P2X4 channels into primary human monocytes, following activation by 2′,3′-O-(4-benzoyl-benzoyl)-ATP (Bz-ATP). Intracellular calcium concentration changes were measured with a Flipr® (Molecular Devices) device using a calcium sensitive dye (Fluo-8). In primary monocytes P2X4 is located at the lysosome membrane, therefore exocytosis has to be triggered to expose P2X4 at the cellular membrane.
Human peripheral blood mononuclear cells (PBMCs) from anticoagulated blood (blood cells, BC) were isolated via density gradient centrifugation. Whole blood was diluted 1:3 with PBS. Samples of 30 mL were layered carefully on top of 15 mL Biocoll (BIOCHROM) in 50 mL centrifuge tubes (Falcon). Tubes were centrifuged at 914×g for 25 min at RT without brake. The PBMC layer was removed with a 10 mL pipette and transferred into tubes with ice-cold PBS in a total volume of 50 mL. Cells were washed twice by pelleting at 300×g at 4° C., for 10 min and for 5 min respectively. PBMCs were re-suspended in 10 mL medium (X-vivo, Biozym Scientific) and counted in a Neubauer chamber.
Monocytes were isolated by negative selection using the Monocyte isolation kit II from Miltenyi (#130-091-153) according to the instructions. Isolation should be done fast and cells and solutions should be kept on ice at any time. PBMCs in batches of 10 exp8 cells were pelleted (300×g, 10 min) and re-suspended with 300 μL MACS buffer in a 50 mL Falcon tube. FcR Blocking reagent (100 μl) and Biotin-Ab (100 μl) were added, mixed and incubated on ice for 10 min. MACS buffer (300 μL) and anti-Biotin Micro-beads (100 μL) were added, mixed and incubated on ice for 15 min. Cells were washed by pelleting (300×g for 10 min) and re-suspended in 500 μL MACS buffer. For each batch one separation column was placed in the MACS separator and rinsed with 3 mL MACS buffer. The cell suspension was added to the column, followed by 3×3 mL MACS buffer for washing, and the eluent containing the monocytes was collected. Cells were pelleted (300×g for 10 min), re-suspended in X-vivo medium and counted. Monocytes were seeded into fibronectin-coated micro-plates (384-well, black, flat transparent bottom; Corning #3848) at a density of 30,000 cells/well in 50 μL, and cultivated over night (37° C., 5% CO2).
Test substances were dissolved in 100% DMSO at a stock concentration of 10 mM and stored at −20° C. in aliquots. Serial dilutions (2×) were prepared in DMSO and diluted 500× with assay buffer to generate the antagonist plate. In the Flipr measurement, 10 μL per well were transferred (4× dilution) and a final top concentrations of 5 μM and 0.05% DMSO were obtained in the assay. Agonist BzATP was stored at 10 mM in aliquots and diluted to an intermediate concentration of 15 μM to generate the agonist plate. In the Flipr measurement, 10 μL per well were transferred (5× dilution) so that a final assay concentration of 3 μM was obtained.
For the experiment, the medium of the cell plate was discarded manually and 70 μL/well loading buffer was added and incubated for 1 h (37° C., 5% CO2). Loading buffer contained HBSS (w/o calcium/magnesium), 10 mM Hepes pH 7.4, 5 μM Fluo-8 (AM) (Tebu-bio) and 50 mM methylamine (Sigma) to trigger exocytosis. Loading buffer was discarded manually and 30 μL/well low-calcium assay buffer (5 mM KCl, 145 mM NaCl, 0.5 mM CaCl2, 13 mM glucose, 10 mM Hepes pH 7.4) was added. The antagonist plate was transferred (10 μL/well) and after 15 min at RT the agonist plate (10 μL/well) was transferred.
Agonist addition was recorded for 240 seconds after a 10 second baseline. For analysis, a baseline correction was applied, and the maximum of the curve was extracted. Data were normalized towards 0% inhibition (signal at 3 μM BzATP) and 100% inhibition (absence of BzATP stimulation) and fitted with a four-parameter sigmoidal inhibition curve using Prism GraphPad to obtain IC50 values.

[2] = target: T2, human P2X4 (Homo sapiens, UniProt Q99571); assay: Human P2X4 HEK Cell FLIPR Assay; type: cell-based; details: agonist Bz-ATP at EC80; for Emax: HEK293, HEK293 cells, percentage of maximal inhibition, read-out: Human P2X4 HEK Cells (FLIPR Assay) avg Efficacy [%]; for pIC50: HEK293 cells, individual values listed where some fall outside detection range
T2 sequence (Q99571 1-388): T1 sequence (Q99571 1-388)
Outline: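 HEK293 cells stably expressing human P2X4, Fluo8-AM loaded 30 min at 37° C, then compound 30 min at room temperature (0.5% DMSO, pH 7.4 buffer with 1.8 mM CaCl2). Bz-ATP at its daily-determined EC80 added; calcium fluorescence read over 120 sec; IC50 from peak RFU normalized to agonist control, triplicates.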

| SMILES | Human P2X4 Monocytes (FLIPR Assay) Efficacy for different donors [1] | Emax [2] [%] | Emax ([1]; read-out: Human P2X4 Monocytes (FLIPR Assay) Efficacy for different donors) [%] | pIC50 ([1]; read-out: Human P2X4 Monocytes (FLIPR Assay) IC50 for different donors) | pIC50 [2] |
| --- | --- | --- | --- | --- | --- |
| COc1ccc(CC(=O)Nc2ccc(-n3cc(Cl)cn3)c(S(N)(=O)=O)c2)cc1 [Example 170, N-[4-(4-Chloro-1H-pyrazol-1-yl)-3-sulfamoylphenyl]-2-(4-methoxyphenyl)acetamide] | 69% and 54% | 70 |  |  |  |
| NS(=O)(=O)c1cc(NC(=O)Cc2ccccc2F)cnc1-c1cnn(C(F)F)c1 [Example 321, N-{6-[1-(Difluoromethyl)-1H-pyrazol-4-yl]-5-sulfamoylpyridin-3-yl}-2-(2-fluorophenyl)acetamide] | 34% and 46% and 95% | 84 | 49 | 6.80 |  |
| NS(=O)(=O)c1cc(NC(=O)Cc2ccccc2Cl)ccc1-c1nc(N2CCOCC2)cs1 [Example 549, 2-(2-Chlorophenyl)-N-{4-[4-(morpholin-4-yl)-1,3-thiazol-2-yl]-3-sulfamoylphenyl}acetamide] |  | 85 |  |  | 8.10 |
| NS(=O)(=O)c1cc(NC(=O)Cc2ccccc2Cl)ccc1-c1ncc(N2CCOCC2)s1 [Example 550, 2-(2-Chlorophenyl)-N-{4-[5-(morpholin-4-yl)-1,3-thiazol-2-yl]-3-sulfamoylphenyl}acetamide] |  | 87 |  |  | 9.00 |
| N#Cc1cnn(-c2ccc(NC(=O)Cc3cccc(O)c3Cl)cc2S(N)(=O)=O)c1 [Example 554, 2-(2-Chloro-3-hydroxyphenyl)-N-[4-(4-cyano-1H-pyrazol-1-yl)-3-sulfamoylphenyl]acetamide] |  | 83 |  |  | 6.42 |
| N#Cc1cnn(-c2ccc(NC(=O)Cc3ccc(O)cc3Cl)cc2S(N)(=O)=O)c1 [Example 555, 2-(2-Chloro-4-hydroxyphenyl)-N-[4-(4-cyano-1H-pyrazol-1-yl)-3-sulfamoylphenyl]acetamide] |  | 94 |  |  | 7.66 |
| N#Cc1cnn(-c2ccc(NC(=O)Cc3c(O)cccc3Cl)cc2S(N)(=O)=O)c1 [Example 557, 2-(2-Chloro-6-hydroxyphenyl)-N-[4-(4-cyano-1H-pyrazol-1-yl)-3-sulfamoylphenyl]acetamide] |  | 89 |  |  | 7.96 |
| N#Cc1cnn(-c2ccc(NC(=O)C(O)c3ccccc3Cl)cc2S(N)(=O)=O)c1 (stereo not shown) [Example 558, 2-(2-Chlorophenyl)-N-[4-(4-cyano-1H-pyrazol-1-yl)-3-sulfamoylphenyl]-2-hydroxyacetamide] |  | 75 |  |  | 5.86 |

Now from value to compound:

| Human P2X4 Monocytes (FLIPR Assay) Efficacy for different donors [1] | Emax [2] [%] | Emax ([1]; read-out: Human P2X4 Monocytes (FLIPR Assay) Efficacy for different donors) [%] | pIC50 ([1]; read-out: Human P2X4 Monocytes (FLIPR Assay) IC50 for different donors) | pIC50 [2] | SMILES |
| --- | --- | --- | --- | --- | --- |
| 77% and 88% | 92 |  |  |  | NS(=O)(=O)c1cc(NC(=O)Cc2ccccc2Cl)ccc1-n1cnc(Cl)n1 [Example 24, 2-(2-Chlorophenyl)-N-[4-(3-chloro-1H-1,2,4-triazol-1-yl)-3-sulfamoylphenyl]-acetamide] |
| 88% | 85 |  |  |  | NS(=O)(=O)c1cc(NC(=O)Cc2ccccc2Cl)ccc1-n1cc(F)cn1 [Example 26, 2-(2-Chlorophenyl)-N-[4-(4-fluoro-1H-pyrazol-1-yl)-3-sulfamoylphenyl]acetamide] |
| 64% and 90% | 90 |  |  |  | NS(=O)(=O)c1cc(NC(=O)Cc2ccccc2Cl)ccc1-n1cc(Br)cn1 [Example 28, N-[4-(4-Bromo-1H-pyrazol-1-yl)-3-sulfamoylphenyl]-2-(2-chlorophenyl)acetamide] |
| 32% and 107% | 69 |  |  |  | NS(=O)(=O)c1cc(NC(=O)Cc2ccccc2Cl)cnc1-n1cc(C(F)(F)F)cn1 [Example 380, 2-(2-Chlorophenyl)-N-{5-sulfamoyl-6-[4-(trifluoromethyl)-1H-pyrazol-1-yl]pyridin-3-yl}acetamide] |
| 51% | 73 |  |  |  | NS(=O)(=O)c1cc(NC(=O)Cc2ccccc2Cl)cnc1-n1cc(Cl)cn1 [Example 387, 2-(2-Chlorophenyl)-N-[6-(4-chloro-1H-pyrazol-1-yl)-5-sulfamoylpyridin-3-yl]acetamide] |
|  | 88 |  |  | 9.00 | NS(=O)(=O)c1cc(NC(=O)Cc2ccccc2Cl)ccc1-c1ccncc1 [Example 552, 2-(2-Chlorophenyl)-N-[4-(pyridin-4-yl)-3-sulfamoylphenyl]acetamide] |
|  | 82 |  |  | 8.30 | NC(=O)c1cnn(-c2ccc(NC(=O)Cc3ccccc3Cl)cc2S(N)(=O)=O)c1 [Example 553, 1-(4-{[(2-Chlorophenyl)acetyl]amino}-2-sulfamoylphenyl)-1H-pyrazole-4-carboxamide] |
|  | 94 |  |  | 7.19 | N#Cc1cnn(-c2ccc(NC(=O)Cc3cc(O)ccc3Cl)cc2S(N)(=O)=O)c1 [Example 556, 2-(2-Chloro-5-hydroxyphenyl)-N-[4-(4-cyano-1H-pyrazol-1-yl)-3-sulfamoylphenyl]acetamide] |

From patent US11524938B2, “Aromatic sulfonamide derivatives” (Bayer Pharma Aktiengesellschaft, priority 2016, dated 2022)
